The values that follow come from PubChem BioAssay (NCI).

Among the test systems are COLO 205 colon; HOP-92 NSCLC; NCI-H460 lung; HCT-15 colon; KM20L2 colon; HCC-2998 colon; MOLT-4 leukemia; MALME-3M melanoma; LXFL 529 NSCLC; BT-549 breast.
What all share (experiment): NCI-60 cell line screen, 48 h

Several values for one entry are separate records, joined by “and”; a condition that tells them apart may be missing. Identical values can stand only once.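 Five concentrations, 48 hours, 96-well plates. At the GI50, growth is halved. TGI: concentration producing complete growth inhibition.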 Bounds are passed on as bounds.

`O=C(NCC(=O)N1CCOC1=O)OCc1ccccc1`: the TGI in the experiment with COLO 205 colon, with HOP-92 NSCLC, in the experiment on NCI-H460 lung, in the experiment on HCT-15 colon, in the experiment with KM20L2 colon and with HCC-2998 colon was more than 100 µM throughout. In the experiment with MOLT-4 leukemia, this compound registered a TGI of more than 100 µM.
For the compound `CC(=O)NNc1nc(C)c(C(=O)/C=C/c2ccc(/C=C/C(=O)c3sc(NNC(C)=O)nc3C)cc2)s1`, the TGI in the experiment with COLO 205 colon, in the experiment with NCI-H460 lung, in the experiment on HCT-15 colon, in the experiment with MALME-3M melanoma, in the experiment with HCC-2998 colon and in the experiment on MOLT-4 leukemia was more than 100 µM throughout. For the same compound, in the experiment on LXFL 529 NSCLC, the TGI was more than 100 µM.
For the compound `NC(=O)C12CC3CC(CC(Br)(C3)C1)C2`, the TGI with HOP-92 NSCLC, in the experiment on NCI-H460 lung, with HCT-15 colon, in the experiment with KM20L2 colon, in the experiment on HCC-2998 colon and with MOLT-4 leukemia was more than 100 µM throughout. Also, the TGI in the experiment on LXFL 529 NSCLC was more than 100 µM.
For `COc1cc(/C=C\c2ccncc2)cc(OC)c1OC`, the TGI in the experiment on COLO 205 colon, in the experiment on HOP-92 NSCLC, in the experiment with NCI-H460 lung, in the experiment with HCT-15 colon, in the experiment on KM20L2 colon and in the experiment with MALME-3M melanoma was more than 100 µM throughout. The TGI in the experiment with MOLT-4 leukemia and in the experiment with LXFL 529 NSCLC was more than 100 µM in each case.
Regarding `CCCCCCCCCCCCCP(=O)(NCC(N)=O)OCC` (stereo unspecified), the TGI amounted to 34 µM in the experiment on COLO 205 colon; 31.1 µM in the experiment on HOP-92 NSCLC; 39.8 µM with NCI-H460 lung; 36 µM with HCT-15 colon; 32.7 µM in the experiment on KM20L2 colon; 32.6 µM in the experiment on MALME-3M melanoma. For the same compound, the TGI was 35.3 µM in the experiment with HCC-2998 colon and 30.8 µM in the experiment with LXFL 529 NSCLC.
As for `CC(=O)OC(C)C(OC(C)=O)C(OC(C)=O)C(/C=C/C1CC=CC(=O)O1)OC(C)=O` (stereo unspecified), the GI50 was 22 µM with COLO 205 colon; 20.8 µM in the experiment on HOP-92 NSCLC; 32.7 µM in the experiment with NCI-H460 lung; 32.2 µM in the experiment on HCT-15 colon; 36.5 µM with MALME-3M melanoma; 25.5 µM in the experiment on BT-549 breast. Further, the values for the GI50 in the experiment on HCC-2998 colon and with MOLT-4 leukemia were 22.9 µM and 29.2 µM, respectively. For the same compound, the TGI with COLO 205 colon was 64.6 µM; with HOP-92 NSCLC, 64.6 µM; in the experiment with NCI-H460 lung it was more than 100 µM; in the experiment on HCT-15 colon, more than 100 µM; in the experiment on MALME-3M melanoma it was more than 100 µM; in the experiment on BT-549 breast, 70.6 µM. The TGI in the experiment with HCC-2998 colon was 45.3 µM; in the experiment with MOLT-4 leukemia, 97.5 µM.
`CC(=O)O.CC(=O)O.CC(=O)O.CC(=O)O.[Rh].[Rh]`: the GI50 is 7.3 µM in the experiment with COLO 205 colon; 25.5 µM in the experiment on HOP-92 NSCLC; 37.4 µM in the experiment on NCI-H460 lung; 28.5 µM in the experiment on HCT-15 colon; 7.06 µM with MALME-3M melanoma; 29.5 µM with BT-549 breast. The GI50 in the experiment with HCC-2998 colon was 24 µM; in the experiment with MOLT-4 leukemia it was 22.6 µM. Moreover, the TGI with COLO 205 colon is 30.1 µM; in the experiment on HOP-92 NSCLC, 63.1 µM; in the experiment on NCI-H460 lung, more than 100 µM; in the experiment on HCT-15 colon, 83.9 µM; with MALME-3M melanoma it was 37.4 µM; in the experiment on BT-549 breast, 90.3 µM. Moreover, the TGI in the experiment with HCC-2998 colon is 56.7 µM; in the experiment on MOLT-4 leukemia it was 47 µM.
On to `O=C1CSC(c2ccccc2O)N1c1nnc(Cn2ccnc2)o1` (stereo unspecified), for which the GI50 is 12.9 µM in the experiment on COLO 205 colon; 2.23 µM in the experiment on HOP-92 NSCLC; 4.76 µM in the experiment with NCI-H460 lung; 3.04 µM in the experiment on HCT-15 colon; 4.43 µM in the experiment on MALME-3M melanoma; 6.26 µM in the experiment on BT-549 breast. For the same compound, the GI50 is 22.8 µM in the experiment with HCC-2998 colon and 5.23 µM with MOLT-4 leukemia. The TGI in the experiment on COLO 205 colon was 45.7 µM; with HOP-92 NSCLC, 28.9 µM; in the experiment on NCI-H460 lung, more than 100 µM; in the experiment on HCT-15 colon it was more than 100 µM; in the experiment on MALME-3M melanoma, 26.2 µM; with BT-549 breast, 29.2 µM. In addition, the TGI was 89.5 µM in the experiment on HCC-2998 colon and more than 100 µM with MOLT-4 leukemia.
As to `CCN(CC)C(=S)SSC(=S)N(CC)CC`, the GI50 is 17 µM and 15.4 µM in the experiment on COLO 205 colon; 15 µM and 40.4 µM with HOP-92 NSCLC; 23.8 µM and 17.4 µM in the experiment on NCI-H460 lung; 20.1 µM and 20.9 µM with HCT-15 colon; 18 µM and 21 µM with MALME-3M melanoma; 19.2 µM and 19.9 µM in the experiment on BT-549 breast. The GI50 is 28.7 µM and 31.3 µM in the experiment with HCC-2998 colon; 17.7 µM and 16 µM in the experiment on MOLT-4 leukemia. In addition, the TGI with COLO 205 colon was 31.8 µM and 30.1 µM; with HOP-92 NSCLC it was 38.4 µM and 133 µM; in the experiment with NCI-H460 lung, 84.2 µM and 66.4 µM; in the experiment with HCT-15 colon, > 56.6 µM and 59.8 µM; in the experiment with MALME-3M melanoma, 37.5 µM and 50 µM; in the experiment on BT-549 breast it was 38 µM and 44.2 µM. Moreover, the TGI in the experiment on HCC-2998 colon is > 67.9 µM and 124 µM; in the experiment with MOLT-4 leukemia, 46.6 µM and 48.5 µM.
As to `COc1ccc(-c2onc(-c3c(C)cc(C)cc3C)c2C2=NCCN2)cc1`, the TGI is 49 µM in the experiment with COLO 205 colon; more than 100 µM in the experiment on NCI-H460 lung; more than 100 µM in the experiment on HCT-15 colon; more than 100 µM with KM20L2 colon; 74.1 µM in the experiment on MALME-3M melanoma; more than 100 µM in the experiment with HCC-2998 colon. Moreover, the TGI with MOLT-4 leukemia and in the experiment on LXFL 529 NSCLC was more than 100 µM throughout.
With `CCN(C(=O)CN1CCN(c2cc3c(cc2F)c(=O)c(C(=O)O)cn3CC)CC1)c1nc(-c2ccccc2)cs1`, the GI50 was 0.226 µM in the experiment with COLO 205 colon; 0.23 µM in the experiment with HOP-92 NSCLC; 0.394 µM in the experiment on NCI-H460 lung; 0.356 µM in the experiment with HCT-15 colon; 0.214 µM in the experiment on MALME-3M melanoma; 0.344 µM with BT-549 breast. In addition, the GI50 with HCC-2998 colon is 0.402 µM; in the experiment with MOLT-4 leukemia it was 0.376 µM. Further, the TGI in the experiment on COLO 205 colon is 0.568 µM; in the experiment on HOP-92 NSCLC it was 0.585 µM; with NCI-H460 lung, more than 100 µM; with HCT-15 colon it was more than 100 µM; in the experiment on MALME-3M melanoma, 0.66 µM; in the experiment on BT-549 breast, more than 100 µM. The TGI in the experiment on HCC-2998 colon and with MOLT-4 leukemia was more than 100 µM each time.
`COc1cc(/C=C/[N+](=O)[O-])cc(OC)c1OC`: the GI50 in the experiment with COLO 205 colon is 1.7 µM; with HOP-92 NSCLC it was 2.25 µM; in the experiment with NCI-H460 lung it was 3.36 µM; with HCT-15 colon, 1.96 µM; with MALME-3M melanoma, 2.29 µM; with BT-549 breast it was 2.19 µM. The GI50 was 1.82 µM in the experiment on HCC-2998 colon and 4.56 µM in the experiment on MOLT-4 leukemia. Besides, the TGI in the experiment on COLO 205 colon came to 3.33 µM; in the experiment on HOP-92 NSCLC, 6.52 µM; in the experiment on NCI-H460 lung, 12.4 µM; in the experiment with HCT-15 colon, 5.04 µM; in the experiment with MALME-3M melanoma, 6.06 µM; with BT-549 breast, 4.57 µM. The TGI with HCC-2998 colon was found to be 3.31 µM; in the experiment on MOLT-4 leukemia it was 34.1 µM.
